{"source": "patent US12325706B2", "about": "“Polymorphic form of sepiapterin” (PTC Therapeutics MP, Inc., priority 2016, dated 2025)", "key": {"[1]": {"assay": "Storage stability of sepiapterin polymorph forms, form change by XRD", "assay_type": "physicochemical", "conditions": "100% RH", "procedure": "(§1) Form A and F samples were placed in chambers with silica gel to remove water (the relative humidity was measured to be ˜10% RH) at different temperatures. Form D samples were placed in chambers with water (relative humidity was estimated to be ˜100% RH) at different temperatures.\n(§2) The HPLC purities and XRD patterns were obtained for each of Form A/F/D samples stored at various temperatures."}, "[2]": {"assay": "Storage stability of sepiapterin polymorph forms, HPLC purity", "assay_type": "physicochemical", "design": "Impurity RRT 1.06 (HPLC) / Impurity RRT 1.08 (HPLC) / Impurity RRT 1.17 (HPLC) / Impurity RRT 1.21 (HPLC) / Impurity RRT 1.25 (HPLC) / Impurity RRT 0.62 (HPLC) / Impurity RRT 0.89 (HPLC) / Impurity RRT 0.95 (HPLC) / Impurity RRT 0.60 (HPLC): unit not given here", "conditions": "for % of Initial / Purity (area %): 100% RH", "procedure": "as §1, §2\nSamples of sepiapterin free base polymorph Forms D, F, and A were stored at room temperature (RT), 35° C., and 50° C. The samples were analyzed by HPLC at 1 week and 4 week intervals."}}, "data": [{"smiles": "C[C@H](O)C(=O)C1=Nc2c(nc(N)[nH]c2=O)NC1", "note": "[Form D, sepiapterin]", "values": [{"measurement": "Form change", "setting": "[1]; storage 1 week, 35° C.", "value": "No"}, {"measurement": "Form change", "setting": "[1]; storage 1 week, 50° C.", "value": "No"}, {"measurement": "Form change", "setting": "[1]; storage 1 week, RT", "value": "No"}, {"measurement": "Form change", "setting": "[1]; storage 4 weeks, 35° C.", "value": "No"}, {"measurement": "Form change", "setting": "[1]; storage 4 weeks, 50° C.", "value": "No"}, {"measurement": "Form change", "setting": "[1]; storage 4 weeks, RT", "value": "No"}, {"measurement": "Impurity RRT 0.62 (HPLC)", "setting": "[2]; 35° C./100% RH, 1 w", "value": "<0.05"}, {"measurement": "Impurity RRT 0.95 (HPLC)", "setting": "[2]; 35° C./100% RH, 1 w", "value": 0.86}, {"measurement": "Impurity RRT 1.08 (HPLC)", "setting": "[2]; 35° C./100% RH, 1 w", "value": 0.14}, {"measurement": "Impurity RRT 1.17 (HPLC)", "setting": "[2]; 35° C./100% RH, 1 w", "value": 0.17}, {"measurement": "Sepiapterin RRT 1.00 (HPLC), amount of sepiapterin", "setting": "[2]; 35° C./100% RH, 1 w", "value": 98.83, "unit": "%"}, {"measurement": "Impurity RRT 0.62 (HPLC)", "setting": "[2]; 35° C./100% RH, 4 w", "value": 0.09}, {"measurement": "Impurity RRT 0.95 (HPLC)", "setting": "[2]; 35° C./100% RH, 4 w", "value": 1.04}, {"measurement": "Impurity RRT 1.08 (HPLC)", "setting": "[2]; 35° C./100% RH, 4 w", "value": "<0.05"}, {"measurement": "Impurity RRT 1.17 (HPLC)", "setting": "[2]; 35° C./100% RH, 4 w", "value": 0.17}, {"measurement": "Sepiapterin RRT 1.00 (HPLC), amount of sepiapterin", "setting": "[2]; 35° C./100% RH, 4 w", "value": 98.70, "unit": "%"}, {"measurement": "Impurity RRT 0.62 (HPLC)", "setting": "[2]; 50° C./100% RH, 1 w", "value": 0.08}, {"measurement": "Impurity RRT 0.95 (HPLC)", "setting": "[2]; 50° C./100% RH, 1 w", "value": 1.05}, {"measurement": "Impurity RRT 1.08 (HPLC)", "setting": "[2]; 50° C./100% RH, 1 w", "value": 0.26}, {"measurement": "Impurity RRT 1.17 (HPLC)", "setting": "[2]; 50° C./100% RH, 1 w", "value": 0.16}, {"measurement": "Sepiapterin RRT 1.00 (HPLC), amount of sepiapterin", "setting": "[2]; 50° C./100% RH, 1 w", "value": 98.45, "unit": "%"}, {"measurement": "Impurity RRT 0.62 (HPLC)", "setting": "[2]; 50° C./100% RH, 4 w", "value": 0.14}, {"measurement": "Impurity RRT 0.95 (HPLC)", "setting": "[2]; 50° C./100% RH, 4 w", "value": 2.03}, {"measurement": "Impurity RRT 1.08 (HPLC)", "setting": "[2]; 50° C./100% RH, 4 w", "value": "<0.05"}, {"measurement": "Impurity RRT 1.17 (HPLC)", "setting": "[2]; 50° C./100% RH, 4 w", "value": 0.18}, {"measurement": "Sepiapterin RRT 1.00 (HPLC), amount of sepiapterin", "setting": "[2]; 50° C./100% RH, 4 w", "value": 97.65, "unit": "%"}, {"measurement": "Impurity RRT 1.08 (HPLC)", "setting": "[2]; Initial", "value": "<0.05"}, {"measurement": "Impurity RRT 1.17 (HPLC)", "setting": "[2]; Initial", "value": 0.17}, {"measurement": "Impurity RRT 0.62 (HPLC)", "setting": "[2]; Initial, listed as Polymorph D", "value": "<0.05"}, {"measurement": "Impurity RRT 0.95 (HPLC)", "setting": "[2]; Initial, listed as Polymorph D", "value": 0.69}, {"measurement": "Sepiapterin RRT 1.00 (HPLC), amount of sepiapterin", "setting": "[2]; Initial, listed as Polymorph D", "value": 99.14, "unit": "%"}, {"measurement": "Sepiapterin RRT 1.00 (HPLC), amount of sepiapterin", "setting": "[2]; Initial, listed as polymorph D", "value": 99.14, "unit": "%"}, {"measurement": "Impurity RRT 0.62 (HPLC)", "setting": "[2]; RT/100% RH, 1 w", "value": "<0.05"}, {"measurement": "Impurity RRT 0.95 (HPLC)", "setting": "[2]; RT/100% RH, 1 w", "value": 0.83}, {"measurement": "Impurity RRT 1.08 (HPLC)", "setting": "[2]; RT/100% RH, 1 w", "value": "<0.05"}, {"measurement": "Impurity RRT 1.17 (HPLC)", "setting": "[2]; RT/100% RH, 1 w", "value": 0.16}, {"measurement": "Sepiapterin RRT 1.00 (HPLC), amount of sepiapterin", "setting": "[2]; RT/100% RH, 1 w", "value": 99.01, "unit": "%"}, {"measurement": "Impurity RRT 0.62 (HPLC)", "setting": "[2]; RT/100% RH, 4 w", "value": 0.09}, {"measurement": "Impurity RRT 0.95 (HPLC)", "setting": "[2]; RT/100% RH, 4 w", "value": 0.81}, {"measurement": "Impurity RRT 1.08 (HPLC)", "setting": "[2]; RT/100% RH, 4 w", "value": "<0.05"}, {"measurement": "Impurity RRT 1.17 (HPLC)", "setting": "[2]; RT/100% RH, 4 w", "value": 0.17}, {"measurement": "Sepiapterin RRT 1.00 (HPLC), amount of sepiapterin", "setting": "[2]; RT/100% RH, 4 w", "value": 98.92, "unit": "%"}, {"measurement": "Purity of initial samples by HPLC", "setting": "[2]; initial, before storage", "value": 99.1, "unit": "area %"}, {"measurement": "% of Initial", "setting": "[2]; storage 1 week, 35° C.", "value": 99.7, "unit": "%"}, {"measurement": "Purity (area %)", "setting": "[2]; storage 1 week, 35° C.", "value": 98.8, "unit": "area %"}, {"measurement": "% of Initial", "setting": "[2]; storage 1 week, 50° C.", "value": 99.3, "unit": "%"}, {"measurement": "Purity (area %)", "setting": "[2]; storage 1 week, 50° C.", "value": 98.5, "unit": "area %"}, {"measurement": "% of Initial", "setting": "[2]; storage 1 week, RT", "value": 99.9, "unit": "%"}, {"measurement": "Purity (area %)", "setting": "[2]; storage 1 week, RT", "value": 99.0, "unit": "area %"}, {"measurement": "% of Initial", "setting": "[2]; storage 4 weeks, 35° C.", "value": 99.6, "unit": "%"}, {"measurement": "Purity (area %)", "setting": "[2]; storage 4 weeks, 35° C.", "value": 98.7, "unit": "area %"}, {"measurement": "% of Initial", "setting": "[2]; storage 4 weeks, 50° C.", "value": 98.5, "unit": "%"}, {"measurement": "Purity (area %)", "setting": "[2]; storage 4 weeks, 50° C.", "value": 97.7, "unit": "area %"}, {"measurement": "% of Initial", "setting": "[2]; storage 4 weeks, RT", "value": 99.8, "unit": "%"}, {"measurement": "Purity (area %)", "setting": "[2]; storage 4 weeks, RT", "value": 98.9, "unit": "area %"}, {"measurement": "Stability on storage as determined by HPLC, comparison of forms in words", "setting": "[2]; storage up to 4 weeks at RT, 35° C., 50° C., listed as polymorph D", "value": "significantly greater stability than polymorph A"}]}]}
